Measurements: patent US20120308554A1, “VEGF-D/VEGFR2/3-MEDIATED REGULATION OF DENDRITES” (UNIVERSITAT HEIDELBERG, priority 2011, published 2012)

Experiments:
[1] = system: C57BL/6 mice; assay: Contextual fear conditioning; assay type: in vivo; conditions: versus rAAV-shSCR
Protocol: rAAVs were delivered by stereotaxic injection into the right dorsal hippocampus of 2 months old male C57BL/6 mice. For the Golgi staining-based morphometric analysis, viral particles were unilaterally injected over a period of 20 min at the following coordinates relative to Bregma: anteroposterior, −2.1 mm; mediolateral, −1.4 mm; dorsoventral, −1.4 to −1.8 mm from the skull surface. For behavior experiments mice were injected bilaterally.
The behavioral experiments started three weeks after stereotaxic delivery of rAAVs. Mice were habituated to the experimental room and handled once a day for three consecutive days before testing started. Two different sets of mice were used for Morris water maze and contextual fear conditioning experiments. At the end of the experiments, virus infection was assessed.
On the training day, mice were placed into the conditioning chamber (23×23×35 cm; TSE, Bad Homburg, Germany) and received a 2 second, 0.5 mA scrambled foot shock 148 seconds after placement into the chamber. Mice were removed from the chamber 30 seconds after the shock. During testing, mice received one 5 minute exposure to the same context in the absence of foot shock 24 hours after conditioning. Freezing, defined as absence of movement except for respiration, was scored continuously during training and testing sessions.

[2] = system: VEGFD; assay: qRT-PCR analysis of VEGFD expression in hippocampal neurons; assay type: cell-based, mice; conditions: hippocampal neurons infected with rAAV
Protocol: Total RNA was isolated at DIV10 to DIV13 from hippocampal primary neuron cultures or isolated brain tissues with Rneasy Mini Kit (Qiagen, Hilden, Germany) including an optional Dnase I treatment at room temperature for 15 min according to manufacturer's instructions (Qiagen). 1.2 μg of extracted RNA was reverse transcribed into first strand cDNA using High Capacity cDNA Reverse Transcription kit (Applied Biosystems, Foster City, Calif.).
Quantitative reverse transcriptase PCR (qRT-PCR) was done on an ABI7300 thermal cycler using Universal qRT-PCR master mix with TaqMan Gene Expression Assays for the indicated genes (Applied Biosystems). The following TaqMan Gene Expression Assays were used in this study: Gusb (Mm00446953_m1), cFos (Mm00487425_m1), VEGFD (Mm00438965_m1), VEGFC (Mm01202432_m1), VEGF (Mm01281449_m1), VEGFR3 (Mm01292618_m1), beta-actin (Mm00607939_s1), beta-2 microglobulin (Mm00437762_m1), CBP (Mm01342435_m1), p38 MAPK alpha (Mm00442497_m1), p38 MAPK beta (Mm00440955_m1). Expression of target genes was normalized against the expression of Gusb as endogenous control gene. Data were derived from at least 5 independent experiments.

[3] = system: cultured hippocampal neurons; assay: Whole-cell patch clamp recordings of cultured hippocampal neurons; assay type: cell-based, mice
From the text: Whole-cell patch clamp recordings were made at room temperature from cultured hippocampal neurons plated on coverslips secured with a platinum ring in a recording chamber (Open access chamber-1, Science Products GmbH, Hofheim, Germany) mounted on a fixed-stage upright microscope (BX51WI, Olympus, Hamburg, Germany). Differential interference contrast optics, infrared illumination and a CCD camera (PCO, Visitron Systems, Puchheim, Germany) connected to a contrast enhancement unit (Argus, Hamamatsu, Herrsching am Ammersee, Germany) were used to view neurons on a video monitor. Recordings were made with a Multiclamp 700A amplifier, digitized through a Digidata 1322A A/D converter and acquired using pClamp software (Molecular Devices, CA, USA). All membrane potentials have been corrected for the calculated junction potential of −11 mV (JPCalc program by Dr. Peter H. Barry). mEPSCs and whole-cell AMPA (10 μM, 6 ml/min, Biotrend) responses were recorded as known in the art except for the solutions and that a holding potential of −71 mV was used and both TTX (1 μM, Biotrend, Cologne, Germany) and gabazine (5 μM, Biotrend) were included in the ACSF. TTX was applied before gabazine to prevent the induction of action potential bursting. Access (range: 7-18 MU) and membrane resistance (see Table 1) were monitored before and after mEPSC recordings and data was rejected if changes greater than 20% occurred.
Patch electrodes (3-4 MU) were made from borosilicate glass (1.5 mm, WPI, Sarasota, Fla., USA) and filled with intracellular solution (containing in mM: KCH3SO4, 145; NaCl, 8; HEPES, 10; K2-phosphocreatine, 10; Mgt-ATP, 4; Na3-GTP, 0.3; pH 7.35 with KOH). The extracellular solution was an artificial cerebrospinal fluid (ACSF, in mM: NaCl, 125; KCl, 3.5; MgCl2, 1.3; NaH2PO4, 1.2; CaCl2, 2.4; glucose, 25; NaHCO3, 26; gassed with 95% O2 and 5% CO2).

Q: For “shVEGFD: shRNA targeting mouse VEGFD mRNA (GGGCTTCAGGAGCGAACAT; SEQ ID NO: 1), expressed from rAAV vector or plasmid with U6 promoter”, which “basal exploratory activity and reaction to shock during training” value [1] is on record?
A: Its value is “not different between the two groups”.

Q: And the “freezing during the 24-hour test session” value [1]?
A: Its value is “significantly lower levels of freezing”.

Q: And the “VEGFD mRNA levels” value [2]?
A: Its value is “reduced VEGFD mRNA levels”.

Q: And the AMPA response amplitudes ([3]; bath applied AMPA 10 μM)?
A: Its AMPA response amplitudes is “smaller”.

Q: And the “AP induc thresh (current injection required to induce an action potential)” value ([3]; infected neurons)?
A: Its value is 162 ± 14 pA.

Q: What about the “AP thresh (membrane potential at which action potentials initiate)” value ([3]; infected neurons) of the same substance?
A: The value was −46.5 ± 1.1 mV.

Q: And the “Cm (membrane capacitance)” value ([3]; infected neurons)?
A: The value was 68.3 ± 3.3 pF.

Q: What about the “Rm (membrane resistance)” value ([3]; infected neurons) of the same substance?
A: The value was 316 ± 19 MΩ.

Q: What about the “Vrest (resting membrane potential)” value ([3]; infected neurons) of the same substance?
A: The value was −82.9 ± 1.9 mV.

Q: And the “mEPSC τ decay” value ([3]; infected neurons)?
A: The value was 4.14 ± 0.15 ms.

Q: What about the “mEPSC τ rise” value ([3]; infected neurons) of the same substance?
A: The value was 2.91 ± 0.10 ms.

Q: What about the “AP induc thresh (current injection required to induce an action potential)” value ([3]; transfected neurons) of the same substance?
A: The value was 149 ± 14 pA.

Q: And the “AP thresh (membrane potential at which action potentials initiate)” value ([3]; transfected neurons)?
A: Its value is −45.6 ± 1.6 mV.

Q: What about the “Cm (membrane capacitance)” value ([3]; transfected neurons) of the same substance?
A: Its value is 59.7 ± 3.8 pF.

Q: What about the “Rm (membrane resistance)” value ([3]; transfected neurons) of the same substance?
A: Its value is 352 ± 29 MΩ.

Q: And the “Vrest (resting membrane potential)” value ([3]; transfected neurons)?
A: The value was −79.7 ± 2.0 mV.

Q: What about the “mEPSC τ decay” value ([3]; transfected neurons) of the same substance?
A: The value was 3.82 ± 0.26 ms.

Q: What about the “mEPSC τ rise” value ([3]; transfected neurons) of the same substance?
A: Its value is 2.82 ± 0.23 ms.

Q: And the “mEPSC inter-event intervals (IEIs, 1/frequency)” value ([3]; versus respective shSCR expressing controls)?
A: The value was “longer mEPSC inter-event intervals”.
